The values below come from patent US20240301409A1, “Chemically Modified Small Activating RNA” (RACTIGEN THERAPEUTICS, priority 2021, published 2024).

Oligonucleotides are written 5' to 3', each unit as a sugar letter and its base; * is a phosphorothioate linkage, no mark a phosphodiester; rarer units and linkages stand in square brackets, end groups in braces. Plain capitals give the bases only. m = 2'-O-methyl; r = 2'-OH (RNA); f = 2'-fluoro

The test system of one data set is TNF-α. In words: PBMC cytokine release assay, TNF-α (ELISA). Format: cell-based, human. The following applies: 10 nM, 24 hours. As for the experimental part: Data represent mean±SD of two independent experiments. […] The values below the line indicate suppressed activities.
Each treatment group was analyzed in triplicate.
(In general: In an ELISA, binding on a coated surface is turned into a signal by an enzyme label.)

The target in the next data set is T1, RNase A (Bos taurus, UniProt P61823).
T1 sequence (P61823 27-150): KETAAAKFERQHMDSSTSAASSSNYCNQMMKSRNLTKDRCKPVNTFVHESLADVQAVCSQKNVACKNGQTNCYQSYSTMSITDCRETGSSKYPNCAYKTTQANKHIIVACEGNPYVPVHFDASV
Put plainly: saRNA stability analysis in the presence of RNase A (agarose gel). The settings on record: incubation 0 to 96 hours.

The subject of data set [1] is Rag1-40 target sequence in the 3′ UTR of firefly luciferase, COS-1 cells. Put plainly: Analysis of off-target effects (pOff-Target dual luciferase reporter in COS-1 cells). The following applies: lysed 48 hours after transfection, luciferase activity. (In general: In a reporter assay the amount or activity of a reporter protein is the signal.)
Another data set relates to Ku-7-LG cells. In words: Cellular proliferation assay (CCK8) in Ku-7-LG cells. In kind it is cell-based, human. The settings on record: 10 nM, 72 hours. As for the experimental part:
Ku-7-LG cells were transfected with the indicated saRNA at 10 nM for 3 days. […] The closer the luciferase value is to the control group, the lower the probability of off-target effects of saRNA is. Control and dsCon2 were blank transfection and double-stranded scramble RNA transfection, respectively. The value of the ordinate represents the mean±SD of two repeated treatments.
After the transfection, the number of viable cells was detected with a CCK8 kit, and plotted as the percentage of the blank control treatment group. […] A transfection sample without oligonucleotide served as a blank control. Non-specific duplex (dsCon) transfected sample served as a negative control. Data are presented as mean±SD of at least two independent experiments. The values below the dashed line indicate stronger growth inhibitory activity compared to duplex Rag1-40 without chemical modification.
Human bladder cancer cells Ku-7-LG (ATCC), J82 (ATCC) and T24 (ATCC) were cultured in McCoy medium (Gibco) comprising 10% calf serum (Sigma-Aldrich) and 1% penicillin/Streptomycin (Gibco). Cells were cultured at 37° C. under 5% CO2. Ku-7-LG, J82 and T24 cells were plated into 12-well plates at 10×10^4 cells per well, transfected with the small RNA at a concentration of 10 nM (unless otherwise specified) for three days, using RNAiMax (Invitrogen, Carlsbad, CA) according to the manufacturer's instructions. Two replicate wells were set for each treatment.
Cells were plated in a 96-well plate at 2˜4×10^3 cells/well, cultured overnight, and transfected with the oligonucleotide duplexes. Three days after transfection, CCK8 (Dojindo) was used to detect cellular proliferation following manufacturer's instructions. The experimental steps are briefly described as follows: 10 μL of CCK8 solution was added to each well, incubated at 37° C. for 1 hour, and then the absorbance at 450 nm was measured using a microplate reader.
It is known that p21 induction by saRNA is that a variety of tumor suppressor factors such as p21 protein suppress the proliferation of cancer cells. To evaluate the effect of chemically modified saRNAs on the function of cancer cells, cells (Ku-7-LG and T24) were transfected with 10 nM unmodified and modified saRNAs for 72 hours, and the cellular proliferation was determined by CCK8. […] Furthermore, there was a correlation between RNA activating activity (FIGS. 7A-7B) and suppression of cellular proliferation activity (FIGS. 8A-8B). Strong p21 activators are usually also strong cytostatics.

The next data set has as its system T24 cells. Put plainly: Cellular proliferation assay (CCK8) in T24 cells, alone and combined with Mitomycin C or valrubicin. In kind it is cell-based, human. The settings on record: T24 cells, 10 nM, 72 hours, CCK8. An outline of the steps:
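Cells transfected with saRNA RAG1-40-31 (0.1–50 nM) for 24 h, then Mitomycin C or valrubicin (1–10000 nM) added in paired concentrations; single-agent saRNA at 10 nM for 72 h. Viability by CCK8 absorbance at 450 nm after 1 h at 37 °C, as % of blank transfection control.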

In another data set the test system is INF-α. In words: PBMC cytokine release assay, INF-α (ELISA). The following applies: PBMC, 10 nM, 24 hours.
A short description of data set [2]: Stability of RNA duplex in human urine (agarose gel). The following applies: 37° C.
Method: Double-stranded RNA (7.5 μL, 10 μM) diluted in 17.5 μL PBS was incubated with 25 μL human fresh urine at 37° C. for 0, 1, 24 and 48 hours, respectively. The duplexes obtained at each time point indicated above were each added to 1 μL of 10× loading buffer, and then frozen in liquid nitrogen. After incubation, all samples were detected for the double-stranded RNA by 4% agarose gel electrophoresis, and the content of each duplex was analyzed by Image J software.
To further test the stability of the chemically modified double-stranded saRNA in human urine, the duplexes were incubated in urine for different durations ranging from 0 to 48 hours.

Method for INF-α: Cells were treated with the indicated duplexes at a final concentration of 10 nM or lipopolysaccharide (LPS) as a positive control for 24 hours, respectively. The levels of INF-α and TNF-α in the cell supernatant were detected by ELISA kit. […] Data represent mean±SD of two independent experiments.
Human peripheral blood mononuclear cells (Allcells, Alameda, CA) were seeded in a 96-well microplate at a density of approximately 10×10^4 cells/well. Transfection of dsRNA was performed using RNAiMAX (Invitrogen, Carlsbad, CA) following manufacturer's instructions. Supernatants were collected 24 hours after transfection and immediately assayed for IFN-α and TNF-α production using ELISA kit (R&D Systems). Each treatment group was analyzed in triplicate.
To assess the immunostimulatory effect of chemically modified saRNAs, human peripheral blood mononuclear cells (PBMC) from healthy donors were incubated with the double-stranded saRNAs, and INF-α and TNF-α levels in the supernatant of treated cells after 24 hours were measured.

On to “Rag1-40-3: saRNA duplex: sense mCmCAACUCAUUCUCCAAGmUmC (SEQ ID NO 5); antisense fUmAfCfUfUmGmGmAmGmAmAfUmGmAmGfUfUmGmGfCmA (SEQ ID NO 8) (sense mCmCrArArCrUrCrArUrUrCrUrCrCrArArGmUmC)”, for which the “immunostimulatory effect (TNF-α induction) compared with Rag1-40, in words” value in the data set on TNF-α is reported as “unchanged immunostimulatory activity”. For the same substance, the “degradation of duplex at 96 hours” value with RNase A is listed as “little or no signs of degradation”. The “off-target effect compared to unmodified Rag1-40, in words” value in data set [1] is “completely inhibited”.
With “Rag1-40-8: saRNA duplex: sense mCmCAACUCAUUCUCCAAGmUmC (SEQ ID NO 5); antisense fUactfUGGAGAAfUGAGfUfUGG*fC*A (SEQ ID NO 13) (sense CCAACUCAUUCUCCAAGUC; antisense UACTUGGAGAAUGAGUUGGCA; 2'-OMe, 2'-F, phosphorothioates, DNA residues; modified_base (1)..(19) (1,2,18,19)=2′-O-methyl(2′-OMe); modified_base (1)..(17) (1,2,9,13,14,17)=2′-fluoro; (1)..(21) (1,5,6,7,8,9,10,11,12,13,14,15,1,61,7,18,19,20, 21)=RNA; (2)..(4) (2,3,4)=DNA; modified_base (16)..(18) (16,17,18)=phosphorothioate (PS) backbone modification)”, the “suppression of cellular proliferation, in words” value in the data set on Ku-7-LG cells and in the data set on T24 cells was “weakens the activity of the saRNA duplex to suppress cellular proliferation” in each case. Moreover, the “immunostimulatory activity (INF-α) compared with Rag1-40, in words” value with INF-α is listed as “reduced immunostimulatory activity”. The “degradation of duplex at 96 hours” value in the data set with RNase A is listed as “little or no signs of degradation”. The “off-target effect compared to unmodified Rag1-40, in words” value in data set [1] is recorded as “mitigated or similar off-target effects”.
Consider “Rag1-40-15: saRNA duplex: sense fCfCAACUCAUUCUCCAAGfUfC (SEQ ID NO 14); antisense U*A*fCfUfUGGAGAAfUGAGfUfUGG*fC*A (SEQ ID NO 12) (sense CCAACUCAUUCUCCAAGUC; antisense UACUUGGAGAAUGAGUUGGCA; 2'-F modifications, phosphorothioates; modified_base (1)..(19) (1,2,18,19)=2′-fluoro; modified_base (2)..(21) (2,3,19,20,21)=phosphorothioate (PS) backbone modification; modified_base (3)..(20) (3,4,5,12,16,17,20)=2′-fluoro)”, for which the “immunostimulatory activity (INF-α) compared with Rag1-40, in words” value in the data set with INF-α is “reduced immunostimulatory activity”. The “degradation of duplex at 96 hours” value in the data set with RNase A is given as “little or no signs of degradation”. For the same substance, the “off-target effect compared to unmodified Rag1-40, in words” value in data set [1] is recorded as “mitigated or similar off-target effects”.
Consider “Rag1-40-17: saRNA duplex: sense mCmCAACUCAUUCUCCAAG*U*C (SEQ ID NO 15); antisense fUAfCfUfUGGAGAAfUGAGfUfUGGfCA (SEQ ID NO 6) (sense CCAACUCAUUCUCCAAGUC; antisense UACUUGGAGAAUGAGUUGGCA; 2'-OMe, 2'-F, phosphorothioates; modified_base (1)..(2) (1,2)=2′-O-methyl(2′-OMe); modified_base (17)..(19) (17,18,19)=phosphorothioate (PS) backbone modification; modified_base (1)..(20) (1,3,4,5,12,16,17,20)=2′-fluoro)”, for which the “degradation of duplex at 48 hours” value in data set [2] is “no sign of degradation”. Also, the “degradation of duplex at 96 hours” value with RNase A is “little or no signs of degradation”. Moreover, the “off-target effect compared to unmodified Rag1-40, in words” value in data set [1] is “mitigated or similar off-target effects”.
For “Rag1-40-25: saRNA duplex: sense fCfCAACUCAUUCUCCAAG*U*C (SEQ ID NO 16); antisense fUAfCfUfUGGAGAAfUGAGfUfUGGfCA (SEQ ID NO 6) (sense CCAACUCAUUCUCCAAGUC; antisense UACUUGGAGAAUGAGUUGGCA; 2'-F, phosphorothioates; modified_base (1)..(2) (1,2)=2′-fluoro; modified_base (17)..(19) (17,18,19)=phosphorothioate (PS) backbone modification; modified_base (1)..(20) (1,3,4,5,12,16,17,20)=2′-fluoro)” the same measures were “no sign of degradation”, “little or no signs of degradation” and “mitigated or similar off-target effects”.
“Rag1-40-27: saRNA duplex: sense fCfCAACUCAUUCUCCAAG*U*C (SEQ ID NO 16); antisense fUmAfCfUfUmGmGmAmGmAmAfUmGmAmGfUfUmGmGfCmA (SEQ ID NO 8) (sense fCfCrArArCrUrCrArUrUrCrUrCrCrArArG*rU*rC)”: the “suppression of cellular proliferation, in words” value in the data set with Ku-7-LG cells and with T24 cells was “negatively affects proliferation suppression activity” each time. Besides, in the data set with INF-α, the “immunostimulatory activity (INF-α) compared with Rag1-40, in words” value was “reduced immunostimulatory activity”. Moreover, in the data set with RNase A, the “degradation of duplex at 96 hours” value is “little or no signs of degradation”. The “off-target effect compared to unmodified Rag1-40, in words” value in data set [1] is on record as “completely inhibited”.
As to “Rag1-40-29: saRNA duplex: sense fCfCAACUCAUUCUCCAAG*U*C (SEQ ID NO 16); antisense UACUfUGGAGAAfUGAGUfUGG*fC*A (SEQ ID NO 10) (sense CCAACUCAUUCUCCAAGUC; antisense UACUUGGAGAAUGAGUUGGCA; 2'-F, phosphorothioates; modified_base (1)..(2) (1,2)=2′-fluoro; modified_base (17)..(19) (17,18,19)=phosphorothioate (PS) backbone modification; modified_base (5)..(20) (5,12,17,20)=2′-fluoro; modified_base (19)..(21) (19,20,21)=phosphorothioate (PS) backbone modification)”, in the data set on INF-α, the “immunostimulatory activity (INF-α) compared with Rag1-40, in words” value is given as “reduced immunostimulatory activity”. Also, in data set [2], the “degradation of duplex at 48 hours” value is recorded as “mostly degraded”. The “off-target effect compared to unmodified Rag1-40, in words” value in data set [1] is recorded as “mitigated or similar off-target effects”.
